Measurements taken from US12466832B2, “Monohydrate and crystalline forms of 6-[(3S,4S)-4-methyl-1-(pyrimidin-2-ylmethyl)pyrrolidin-3-yl]-3-tetrahydropyran-4-yl-7H-imidazo[1,5-a]pyrazin-8-one” (Cardurion Pharmaceuticals, Inc., priority 2018, dated 2025).
Values after ≈ are worked out from the molar mass of the structure shown.

What was measured:
Type in all cases: physicochemical
[1] = Solubility assessment of MH1 in solvents (HPLC of liquors, XRPD of isolated solids); conditions: for solubility at 24 h: organic solvent or mixture, thermodynamic from solid
Description: Procedure: Four solvents were chosen based on the competitive slurry experiments that favored MH1 as well as for diversity. Combinations of those solvents with water (aw=0.35) were also utilized to verify which hydrate is favored. Mixtures of the solvents with heptane (1:1) were used to check for crystal form with a good antisolvent.
MH1 (22×104 mg) was suspended in various solvents (11×0.5 ml) and stirred at either 5 or 50° C. for 24 hours at 750 rpm. The solids were isolated by filtration and centrifugation and the liquors were analysed by HPLC to determine their solubility (relative to a standard made up). The solids were also investigated by XRPD. This procedure was also followed for an additional five solvent systems comprising different ratios of THF:heptane and IPA:heptane at either 5 or 50° C. The isolated solids were investigated by XRPD, HPLC and ^1HNMR.

[2] = pH profiling solubility experiments; conditions: 24 hours
Description: Procedure: pH profiling solubility experiments were performed on MH1 and MH2. Solubility was determined in singlicate by suspending sufficient compound in relevant media (1.00 ml) to give a maximum final concentration as shown in the Table 17.
The suspensions were equilibrated at 25° C., on a Heidolph plate shaker set to 750 rpm for 24 hours. Samples were pH adjusted as required using 0.5M/1M HCl and 0.2M NaOH to within 0.1 of the desired pH unit (where possible). The pHs of the saturated solutions were measured (where applicable) and an appearance was recorded. The suspensions were filtered through a glass fibre C filter (particle retention […]) and diluted appropriately. Quantitation was by HPLC with reference to a standard solution of approximately 0.15 mg/ml in DMSO. Different volumes of the standard, diluted and undiluted sample solutions were injected. The solubility was calculated using the peak areas determined by integration of the peak found at the same retention time as the principal peak in the standard injection.

[3] = Gravimetric Vapour Sorption (GVS); conditions: 25° C., 0-90% RH
Description: Sorption isotherms were obtained using a SMS DVS Intrinsic moisture sorption analyzer, controlled by DVS Intrinsic Control software. The sample temperature was maintained at 25° C. by the instrument controls. The humidity was controlled by mixing streams of dry and wet nitrogen, with a total flow rate of 200 ml/min. The relative humidity was measured by a calibrated Rotronic probe (dynamic range of 1.0-100% RH), located near the sample. The weight change, (mass relaxation) of the sample as a function of % RH was constantly monitored by a microbalance (accuracy ±0.005 mg).
Typically, 5-30 mg of sample was placed in a tared mesh stainless steel basket under ambient conditions. The sample was loaded and unloaded at 40% RH and 25° C. (typical room conditions). A moisture sorption isotherm was performed as outlined below (2 scans per complete cycle). The standard isotherm was performed at 25° C. at 10% RH intervals over a 0-90% RH range. Typically, a double cycle (4 scans) was carried out. Data analysis was carried out within Microsoft Excel using the DVS Analysis Suite.
The sample was recovered after completion of the isotherm and re-analyzed by XRPD.

[4] = Drying investigation of the two hydrates (vacuum oven, XRPD and TGA)
Description: Procedure: MH1 and MH2 were placed in a vacuum oven at 50° C. and RT for 24 h. The samples were then analysed by TGA and XRPD immediately after removal and after 4 hours standing under ambient conditions.

[5] = Stability studies with competitive slurries of the two hydrates; conditions: ambient conditions
Description: Procedure: Saturated solutions of the supplied MH 1 (J08343) were prepared in different solvents/systems (1 ml). The saturated solutions were then filtered and used for competitive slurry experiments.
MH1 and MH2 (ca. 15 mg each) were physically mixed before they were treated with the filtered saturated solutions (300 μL). The samples were stirred at 25° C. for 24 h then filtered, air dried and analysed by XRPD.
The same solvents were used as for samples in water activity experiments with additional IPA/heptane mixtures as this is the current crystallisation solvent. This procedure was also followed for IPA/heptane at 5 and 50° C. (3 days slurrying).
Further experiments were designed to increase the diversity of solvents/systems studied while still investigating the effect of water activity on the form obtained. This was with a view to define a solvent list for Phase 3 (Solvent Selection). Further saturated solutions were prepared as described in the procedure section using MH1 as supplied.

[6] = Ethanol:Heptane 1:1, 5° C., 24 hours
[7] = IPrOAc:0.5% water, 50° C., 24 hours
[8] = IPrOAc:Heptane 1:1, 5° C., 24 hours
[9] = IPrOAc:Heptane 1:1, 50° C., 24 hours
[10] = THF:0.8% water, 5° C., 24 hours
[11] = THF:Heptane 1:1, 5° C., 24 hours
[12] = THF:Heptane 1:1, 50° C., 24 hours

C[C@@H]1CN(Cc2ncccn2)C[C@H]1c1cn2c(C3CCOCC3)ncc2c(=O)[nH]1 [MH1, 6-[(3S,4S)-4-methyl-1-(pyrimidin-2-ylmethyl)pyrrolidin-3-yl]-3-tetrahydropyran-4-yl-7H-imidazo[1,5-a]pyrazin-8-one]
Solubility ([1]; Ethanol, 5° C., 24 hours): >200 mg/mL
Solubility ([1]; Ethanol, 50° C., 24 hours): >200 mg/mL
Solubility ([1]; Ethanol:4.2% water, 5° C., 24 hours): >200 mg/mL
XRPD (isolated solid) [1, 6]: MH1 + AH
XRPD (isolated solid) ([1]; Heptane, 5° C., 24 hours): MH1
XRPD (isolated solid) ([1]; Heptane, 50° C., 24 hours): MH1 + AH
XRPD (isolated solid) ([1]; IPA, 5° C., 24 hours): MH1 + AH
Solubility ([1]; IPA, 50° C., 24 hours): >200 mg/mL
XRPD (isolated solid) ([1]; IPA:Heptane 1:1, 5° C.): MH1
XRPD (isolated solid) ([1]; IPA:Heptane 1:2, 5° C.): MH1
XRPD (isolated solid) ([1]; IPA:Heptane 1:2, 50° C.): MH1
XRPD (isolated solid) ([1]; IPA:Heptane 1:3, 5° C.): MH1
XRPD (isolated solid) ([1]; IPA:Heptane 1:3, 50° C.): MH1
solubility at 24 h ([1]; IPrOAc with 0.5% water, IPrOAc:0.5% water, 5° C., 24 hours): 3.8 mg/mL
XRPD (isolated solid) ([1]; IPrOAc, 5° C., 24 hours): MH1
XRPD (isolated solid) ([1]; IPrOAc, 50° C., 24 hours): MH1 + AH
XRPD (isolated solid) ([1]; IPrOAc:0.5% water, 5° C., 24 hours): MH2
XRPD (isolated solid) [1, 7]: MH1
XRPD (isolated solid) [1, 8]: MH1
XRPD (isolated solid) [1, 9]: MH1
XRPD (isolated solid) ([1]; THF, 5° C., 24 hours): MH2 + New peaks
Solubility ([1]; THF, 50° C., 24 hours): >200 mg/mL
XRPD (isolated solid) [1, 10]: MH2
XRPD (isolated solid) [1, 11]: MH1
XRPD (isolated solid) [1, 12]: MH1
XRPD (isolated solid) ([1]; THF:Heptane 1:2, 5° C.): MH1
XRPD (isolated solid) ([1]; THF:Heptane 1:2, 50° C.): MH1
XRPD (isolated solid) ([1]; THF:Heptane 2:1, 5° C.): MH2
XRPD (isolated solid) ([1]; THF:Heptane 2:1, 50° C.): MH1
solubility at 24 h ([1]; ethanol with 4.2% water, Ethanol:4.2% water, 5° C., 24 hours): > 200 mg/mL
solubility at 24 h ([1]; Ethanol, 5° C., 24 hours): > 200 mg/mL
solubility at 24 h ([1]; Ethanol, 50° C., 24 hours): > 200 mg/mL
solubility at 24 h ([1]; Ethanol:4.2% water, 50° C., 24 hours): > 200 mg/mL
solubility at 24 h [1, 6]: 170 mg/mL
solubility at 24 h ([1]; Ethanol:Heptane 1:1, 50° C., 24 hours): > 200 mg/mL
solubility at 24 h ([1]; IPA, 5° C., 24 hours): 130 mg/mL
solubility at 24 h ([1]; IPA, 50° C., 24 hours): > 200 mg/mL
solubility at 24 h ([1]; IPA:Heptane 1:1, 5° C.): 40 mg/mL
solubility at 24 h ([1]; IPA:Heptane 1:1, 50° C.): > 200 mg/mL
solubility at 24 h ([1]; IPA:Heptane 1:2, 5° C.): 14 mg/mL
solubility at 24 h ([1]; IPA:Heptane 1:2, 50° C.): 19 mg/mL
solubility at 24 h ([1]; IPA:Heptane 1:3, 5° C.): 8 mg/mL
solubility at 24 h ([1]; IPA:Heptane 1:3, 50° C.): 10 mg/mL
solubility at 24 h ([1]; IPrOAc, 5° C., 24 hours): 11 mg/mL
solubility at 24 h ([1]; IPrOAc, 50° C., 24 hours): 6.3 mg/mL
solubility at 24 h [1, 7]: 5.6 mg/mL
solubility at 24 h [1, 8]: 1.9 mg/mL
solubility at 24 h [1, 9]: 2.1 mg/mL
solubility at 24 h ([1]; THF, 5° C., 24 hours): 79 mg/mL
solubility at 24 h ([1]; THF, 50° C., 24 hours): > 200 mg/mL
solubility at 24 h [1, 10]: 76 mg/mL
solubility at 24 h ([1]; THF:0.8% water, 50° C., 24 hours): > 200 mg/mL
solubility at 24 h [1, 11]: 6.3 mg/mL
solubility at 24 h [1, 12]: 11 mg/mL
solubility at 24 h ([1]; THF:Heptane 1:2, 5° C.): 0.33 mg/mL
solubility at 24 h ([1]; THF:Heptane 1:2, 50° C.): 0.62 mg/mL
solubility at 24 h ([1]; THF:Heptane 2:1, 5° C.): 17 mg/mL
solubility at 24 h ([1]; THF:Heptane 2:1, 50° C.): 21 mg/mL
Solubility ([2]; media pH 1.2, 25° C., pH not maintained, final pH 5.02 (MH1-A), 6.63 (MH2-A)): >275 mg/mL
Solubility ([2]; media pH 4.0, 25° C., listed as MH1-B): >106 mg/mL
Solubility ([2]; media pH 6.5, 25° C., listed as MH1-C): >164 mg/mL
Solubility ([2]; media pH 7.5, 25° C., listed as MH1-D): 62 mg/mL (≈ 157 mM)
GVS Max uptake [3]: Max uptake of 4.7%, no hysteresis, large step
XRPD (T = 0, 50° C.) ([4]; vacuum oven 50° C. 24 h, immediately after removal): Matches MH1 and AH
TGA (T = 0, 50° C.) ([4]; vacuum oven 50° C. 24 h, immediately after removal, lost between 25 and 100° C.): 0.3% w/w lost between
TGA (T = 4 h, 50° C.) ([4]; vacuum oven 50° C. 24 h, then 4 hours ambient, lost between 25 and 100° C.): 2.7% w/w lost between
XRPD (T = 4 h, 50° C.) ([4]; vacuum oven 50° C. 24 h, then 4 hours at ambient conditions): Matches MH1
XRPD (T = 0, RT) ([4]; vacuum oven RT 24 h, immediately after removal): Matches MH1 and AH
TGA (T = 0, RT) ([4]; vacuum oven RT 24 h, immediately after removal, lost between 25 and 100° C.): 0.3% w/w lost between
TGA (T = 4 h, RT) ([4]; vacuum oven RT 24 h, then 4 hours ambient, lost between 25 and 100° C.): 1.8% w/w lost between
XRPD (T = 4 h, RT) ([4]; vacuum oven RT 24 h, then 4 hours at ambient conditions): Matches MH1
Relative stability of the forms [5]: most stable form at ambient conditions
